According to PubChem BioAssay (NCI):
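GI50 is the concentration that inhibits growth by half. At the TGI there is no net growth.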

Legend:
Test in all cases: NCI-60 cell line screen, 384-well format
A498 renal = tested on: A498 renal
A549 NSCLC = tested on: A549 NSCLC
ACHN renal = tested on: ACHN renal
BT-549 breast = tested on: BT-549 breast
CAKI-1 renal = tested on: CAKI-1 renal
COLO 205 colon = tested on: COLO 205 colon
DU-145 prostate = tested on: DU-145 prostate
EKVX NSCLC = tested on: EKVX NSCLC
HCC-2998 colon = tested on: HCC-2998 colon
HCT-116 colon = tested on: HCT-116 colon
HCT-15 colon = tested on: HCT-15 colon
HL-60(TB) leukemia = tested on: HL-60(TB) leukemia
HOP-62 NSCLC = tested on: HOP-62 NSCLC
HOP-92 NSCLC = tested on: HOP-92 NSCLC
HS 578T breast = tested on: HS 578T breast
HT29 colon = tested on: HT29 colon
IGROV1 ovarian = tested on: IGROV1 ovarian
KM12 colon = tested on: KM12 colon
LOX IMVI melanoma = tested on: LOX IMVI melanoma
M14 melanoma = tested on: M14 melanoma
MALME-3M melanoma = tested on: MALME-3M melanoma
MCF7 breast = tested on: MCF7 breast
MDA-MB-231 breast = tested on: MDA-MB-231 breast
MDA-MB-435 melanoma = tested on: MDA-MB-435 melanoma
MOLT-4 leukemia = tested on: MOLT-4 leukemia
NCI-H226 lung = tested on: NCI-H226 lung
NCI-H23 lung = tested on: NCI-H23 lung
NCI-H322M lung = tested on: NCI-H322M lung
NCI-H460 NSCLC = tested on: NCI-H460 NSCLC
NCI-H522 lung = tested on: NCI-H522 lung
OVCAR-3 ovarian = tested on: OVCAR-3 ovarian
OVCAR-4 ovarian = tested on: OVCAR-4 ovarian
OVCAR-5 ovarian = tested on: OVCAR-5 ovarian
OVCAR-8 ovarian = tested on: OVCAR-8 ovarian
PC-3 prostate = tested on: PC-3 prostate
RPMI-8226 leukemia = tested on: RPMI-8226 leukemia
SF-268 CNS = tested on: SF-268 CNS
SF-539 CNS = tested on: SF-539 CNS
SK-MEL-28 melanoma = tested on: SK-MEL-28 melanoma
SK-MEL-5 melanoma = tested on: SK-MEL-5 melanoma
SK-OV-3 ovarian = tested on: SK-OV-3 ovarian
SN12C renal = tested on: SN12C renal
SNB-19 CNS = tested on: SNB-19 CNS
SNB-75 CNS = tested on: SNB-75 CNS
SR leukemia = tested on: SR leukemia
TK-10 renal = tested on: TK-10 renal
U251 glioblastoma = tested on: U251 glioblastoma
UACC-257 melanoma = tested on: UACC-257 melanoma
UACC-62 melanoma = tested on: UACC-62 melanoma

Structure (SMILES): Nc1nc(Nc2ccc(C3CCC(N4CCOCC4)CC3)cc2)nn1-c1ccccn1 (stereo not drawn)
- GI50 (A498 renal): 2.57 µM
- TGI (A498 renal): 5.75 µM
- GI50 (A549 NSCLC): 3.49 µM
- TGI (A549 NSCLC): > 100 µM
- GI50 (ACHN renal): 2.84 µM
- TGI (ACHN renal): 7.6 µM
- GI50 (BT-549 breast): 1.67 µM
- TGI (BT-549 breast): 3.25 µM
- GI50 (CAKI-1 renal): 3.08 µM
- TGI (CAKI-1 renal): > 100 µM
- GI50 (COLO 205 colon): 2.89 µM
- TGI (COLO 205 colon): 5.83 µM
- GI50 (DU-145 prostate): 3.08 µM
- TGI (DU-145 prostate): 8.5 µM
- GI50 (EKVX NSCLC): 4.45 µM
- TGI (EKVX NSCLC): > 100 µM
- GI50 (HCC-2998 colon): 2.97 µM
- TGI (HCC-2998 colon): 6.32 µM
- GI50 (HCT-116 colon): 2.42 µM
- TGI (HCT-116 colon): 6 µM
- GI50 (HCT-15 colon): 2.01 µM
- TGI (HCT-15 colon): 4.14 µM
- GI50 (HL-60(TB) leukemia): 1.35 µM
- TGI (HL-60(TB) leukemia): 2.67 µM
- GI50 (HOP-62 NSCLC): 2.58 µM
- TGI (HOP-62 NSCLC): 6.7 µM
- GI50 (HOP-92 NSCLC): 4.97 µM
- TGI (HOP-92 NSCLC): 20.4 µM
- GI50 (HS 578T breast): 1.89 µM
- TGI (HS 578T breast): 3.54 µM
- GI50 (HT29 colon): 1.82 µM
- TGI (HT29 colon): 3.59 µM
- GI50 (IGROV1 ovarian): 3.06 µM
- TGI (IGROV1 ovarian): 11.6 µM
- GI50 (KM12 colon): 0.291 µM
- TGI (KM12 colon): > 100 µM
- GI50 (LOX IMVI melanoma): 2.04 µM
- TGI (LOX IMVI melanoma): 3.63 µM
- GI50 (M14 melanoma): 2.26 µM
- TGI (M14 melanoma): 3.89 µM
- GI50 (MALME-3M melanoma): 1.86 µM
- TGI (MALME-3M melanoma): 4.1 µM
- GI50 (MCF7 breast): 3.43 µM
- TGI (MCF7 breast): > 100 µM
- GI50 (MDA-MB-231 breast): 4.56 µM
- TGI (MDA-MB-231 breast): > 100 µM
- GI50 (MDA-MB-435 melanoma): 2.25 µM
- TGI (MDA-MB-435 melanoma): 6.2 µM
- GI50 (MOLT-4 leukemia): 1.76 µM
- TGI (MOLT-4 leukemia): 3.19 µM
- GI50 (NCI-H226 lung): 2.59 µM
- TGI (NCI-H226 lung): 6.49 µM
- GI50 (NCI-H23 lung): 2.77 µM
- TGI (NCI-H23 lung): > 100 µM
- GI50 (NCI-H322M lung): 4.03 µM
- TGI (NCI-H322M lung): 15 µM
- GI50 (NCI-H460 NSCLC): 3.17 µM
- TGI (NCI-H460 NSCLC): 10.7 µM
- GI50 (NCI-H522 lung): 3.11 µM
- TGI (NCI-H522 lung): 9.08 µM
- GI50 (OVCAR-3 ovarian): 3.13 µM
- TGI (OVCAR-3 ovarian): 7.21 µM
- GI50 (OVCAR-4 ovarian): 7.22 µM
- TGI (OVCAR-4 ovarian): 27.8 µM
- GI50 (OVCAR-5 ovarian): 2.44 µM
- TGI (OVCAR-5 ovarian): 5.19 µM
- GI50 (OVCAR-8 ovarian): 5.06 µM
- TGI (OVCAR-8 ovarian): > 100 µM
- GI50 (PC-3 prostate): 3.57 µM
- TGI (PC-3 prostate): 11.9 µM
- GI50 (RPMI-8226 leukemia): 2.3 µM
- TGI (RPMI-8226 leukemia): 3.78 µM
- GI50 (SF-268 CNS): 3.37 µM
- TGI (SF-268 CNS): 13.2 µM
- GI50 (SF-539 CNS): 1.43 µM
- TGI (SF-539 CNS): 3.02 µM
- GI50 (SK-MEL-28 melanoma): 1.81 µM
- TGI (SK-MEL-28 melanoma): 3.34 µM
- GI50 (SK-MEL-5 melanoma): 1.7 µM
- TGI (SK-MEL-5 melanoma): 3.23 µM
- GI50 (SK-OV-3 ovarian): 3.33 µM
- TGI (SK-OV-3 ovarian): > 100 µM
- GI50 (SN12C renal): 1.05 µM
- TGI (SN12C renal): 3.84 µM
- GI50 (SNB-19 CNS): 3.68 µM
- TGI (SNB-19 CNS): 16.5 µM
- GI50 (SNB-75 CNS): 2 µM
- TGI (SNB-75 CNS): 3.94 µM
- GI50 (SR leukemia): 0.255 µM
- TGI (SR leukemia): 0.559 µM
- GI50 (TK-10 renal): 5.32 µM
- TGI (TK-10 renal): 24.1 µM
- GI50 (U251 glioblastoma): 2.02 µM
- TGI (U251 glioblastoma): 4.06 µM
- GI50 (UACC-257 melanoma): 1.83 µM
- TGI (UACC-257 melanoma): 3.31 µM
- GI50 (UACC-62 melanoma): 2.03 µM
- TGI (UACC-62 melanoma): 4.56 µM
